# Assay results: US20190369122A1, “METABOLIC DISORDERS” (priority 2016, published 2019)
# B1: recombinant p38γ (Abcam, ab125651) (protein)
# chain: MSSPPPARSGFYRQEVTKTAWEVRAVYRDLQPVGSGAYGAVCSAVDGRTGAKVAIKKLYRPFQSELFAKRAYRELRLLKHMRHENVIGLLDVFTPDETLDDFTDFYLVMPFMGTDLGKLMKHEKLGEDRIQFLVYQMLKGLRYIHAAGIIHRDLKPGNLAVNEDCELKILDFGLARQADSEMTGYVVTRWYRAPEVILNWMRYTQTVDIWSVGCIMAEMITGKTLFKGSDHLDQLKEIMKVTGTPPAEFVQRLQSDEAKNYMKGLPELEKKDFASILTNASPLAVNLLEKMLVLDAEQRVTAGEALAHPYFESLHDTEDEPQVQKYDDSFDDVDRTLDEWKRVTYKEVLSFKPPRQLGARVSKETPL
# Tests used:
# HEK293 cells = assay: Signaling in HEK293 cells (immunoblot); assay type: cell-based, human; conditions: for inhibition of imidazole propionate-induced phosphorylation of p62 and S6K1: 10 μM, 30 min pretreatment, ImP 100 μM 1 h
# Protocol: (§1) Snap-frozen liver and harvested cells were lysed in buffer containing 50 mM Tris-HCl (pH 7.4), 150 mM NaCl, 1 mM EDTA, 1 mM Na3VO4, 20 mM NaF, 10 mM glycerophosphate, 1 mM PMSF, 10% glycerol, 1% Triton X-100 and protease inhibitor cocktail. For immunoprecipitation, the cell lysates were obtained in 0.3% CHAPS-containing lysis buffer, sonicated and centrifuged at 20,000 g for 15 min at 4° C., and the supernatant was incubated with 20 μl of anti-FLAG beads (Sigma) at 4° C. for 4 h under gentle agitation.
# HEK293 cells (ATCC CRL-1573) were grown and maintained in high-glucose (4.5 g/l glucose) DMEM with 10% (v/v) FBS. […] 24 h after transfection (with plasmids or siRNA as indicated), HEK293 cells cultured in poly-L-lysine-coated 60 mm dishes were rinsed twice with DMEM without FBS and incubated in serum-free DMEM for 18 h. HEK293 cells were then washed once with EBSS and incubated in EBSS for 1 h.
# primary hepatocytes = assay: Insulin signaling in primary hepatocytes (immunoblot); assay type: cell-based, mouse; conditions: rapamycin 20 nM, Torin 1 50 nM, ImP 100 μM
# Protocol: as §1
# Primary hepatocytes were isolated from C57BL/6J mice by digesting liver with perfusion of collagenase type IV as described previously. After perfusion, 16×10^5 cells were plated on collagen-coated 60 mm dishes in Dulbecco's modified Eagle's medium (DMEM)/F12 supplemented with fetal bovine serum (FBS), penicillin/streptomycin and 100 nM dexamethasone. After 4 h, the medium was changed to DMEM/F12 containing penicillin/streptomycin.
# p38γ/p38δ = conditions: cited from earlier work
# p38α/p38β = conditions: cited from earlier work
# [1] = molecular target: recombinant p62 (Abcam, ab95320), Q13501
molecule,measurement,setting,value
"N[C@@H](Cc1c[nH]cn1)C(=O)O [histidine, reference compound]",phosphorylation of p62 or S6K1,"HEK293 cells; amino acid-deprived HEK293, 100 μM for 1 h",neither
"NC1(c2ccc(-c3nc4ccn5c(=O)[nH]nc5c4cc3-c3ccccc3)cc2)CCC1 [MK2206, reference compound]",effect on imidazole propionate-induced Akt activation,HEK293 cells,efficiently blocked
same,effect on imidazole propionate-induced S6K1 phosphorylation,HEK293 cells; absence of amino acids,did not affect
same,effect on imidazole propionate-induced S6K1 phosphorylation,HEK293 cells; presence of amino acids,inhibition
"CCC(=O)N1CCN(c2ccc(-n3c(=O)ccc4cnc5ccc(-c6cnc7ccccc7c6)cc5c43)cc2C(F)(F)F)CC1 [torin 1, 1-[4-[4-(1-oxopropyl)-1-piperazinyl]-3-(trifluoromethyl)phenyl]-9-(3-quinolinyl)-benzo[h]-1,6-naphthyridin-2(1H)-one, reference compound]",effect on imidazole propionate-induced S6K1 phosphorylation,primary hepatocytes,reversed
same,inhibition of imidazole propionate-induced reduction of IRS,primary hepatocytes,inhibited
"Cc1ccc(-n2nc(C(C)(C)C)cc2NC(=O)Nc2ccc(OCCN3CCOCC3)c3ccccc23)cc1 [BIRB796, 1-(5-tert-butyl-2-p-tolyl-2H-pyrazol-3-yl)-3-[4-(2-morpholin-4-yl-ethoxy)naphthalen-1-yl]urea]",inhibition of imidazole propionate-induced phosphorylation of p62 and S6K1,HEK293 cells; amino acid-deprived HEK293,inhibited
same,inhibition of p38γ/p38δ,p38γ/p38δ,inhibits the entire p38 subfamily
same,inhibition of p38α/p38β,p38α/p38β,inhibits the entire p38 subfamily
Oc1ccc(-c2nc(-c3ccncc3)c(-c3ccc(F)cc3)[nH]2)cc1 [SB202190],inhibition of imidazole propionate-induced phosphorylation of p62 and S6K1,HEK293 cells; amino acid-deprived HEK293,not
same,inhibition of p38α/p38β,p38α/p38β,inhibited
"CC(C)C[C@H](N)C(=O)O [Leucine, reference compound]",S6K1 phosphorylation,"HEK293 cells; HEK293, after only 15 min, transient",increased
same,time to mTORC1 activation,HEK293 cells; absence of amino acids,≤ 15 min
"insulin: insulin from Sigma-Aldrich, used at 5 nM","mTORC1 activation, as measured by S6K1 phosphorylation","HEK293 cells; HEK293, insulin 5 nM, absence of amino acids or imidazole propionate",did not lead to mTORC1 activation
B1,"p62 phosphorylation (T269 and S272), in vitro kinase assay",[1],"p62 phosphorylation, at T269 and S272, was induced by p38γ in the presence of 50 µM ATP, which was further increased with 200 µM ATP"
